What was measured:
[1] = target: Histone-lysine N-methyltransferase KMT5C (Homo sapiens) (UniProt Q86Y97); test: Selectivity interaction (Methyltransferase screen (radiometric assays, panel of 8 PRMTs, 21 protein lysine methyltransferases, 3 DNA methyltransferases, and one RNA methyltransferase)) EUB0000272b SUV420H2
[2] = target: BMP-2-inducible protein kinase (Homo sapiens) (UniProt Q9NSY1); test: Selectivity interaction (KinomeScan (DiscoverX)) EUB0000229b BMP2K; conditions: at 10 µM
[3] = target: Serine/threonine-protein kinase WNK3 (Homo sapiens) (UniProt Q9BYP7); test: Selectivity interaction (LanthaScreen Eu Kinase Binding Assay) EUB0001632a WNK3; conditions: at 10 µM
[4] = target: Casein kinase I isoform epsilon (Homo sapiens, UniProt P49674); test: Selectivity interaction (SelectScreen profiling (Invitrogen)) EUB0000607a CSNK1E; conditions: at 2 µM
Sequence of Casein kinase I isoform epsilon (P49674 whole entry, looked up, canonical isoform): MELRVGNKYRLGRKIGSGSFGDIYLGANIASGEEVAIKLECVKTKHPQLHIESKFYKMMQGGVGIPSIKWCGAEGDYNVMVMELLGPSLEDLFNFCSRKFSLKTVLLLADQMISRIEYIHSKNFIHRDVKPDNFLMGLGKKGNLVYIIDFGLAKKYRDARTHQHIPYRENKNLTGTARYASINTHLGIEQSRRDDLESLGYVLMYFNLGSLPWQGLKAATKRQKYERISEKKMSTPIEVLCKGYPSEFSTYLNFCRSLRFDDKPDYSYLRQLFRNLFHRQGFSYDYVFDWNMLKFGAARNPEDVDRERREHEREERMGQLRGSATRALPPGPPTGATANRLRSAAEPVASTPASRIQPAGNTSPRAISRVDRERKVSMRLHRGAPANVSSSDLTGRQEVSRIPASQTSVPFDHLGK

[5] = target: T1, Testis-specific serine/threonine-protein kinase 2 (Homo sapiens) (UniProt Q96PF2); test: Selectivity interaction (SelectScreen profiling (Invitrogen)) EUB0000607a TSSK2; conditions: at 2 µM
T1 sequence (whole entry): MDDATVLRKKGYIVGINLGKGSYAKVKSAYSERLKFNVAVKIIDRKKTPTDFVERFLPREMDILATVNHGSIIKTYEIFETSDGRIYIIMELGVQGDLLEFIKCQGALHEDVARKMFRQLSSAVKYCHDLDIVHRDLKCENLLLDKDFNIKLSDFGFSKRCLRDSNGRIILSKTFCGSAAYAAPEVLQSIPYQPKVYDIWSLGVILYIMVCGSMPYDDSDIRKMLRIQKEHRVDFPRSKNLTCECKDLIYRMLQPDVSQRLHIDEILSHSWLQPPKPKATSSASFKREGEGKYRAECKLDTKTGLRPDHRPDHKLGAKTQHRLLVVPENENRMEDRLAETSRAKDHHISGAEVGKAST

[6] = target: T2, Serine/threonine-protein kinase MAK (Homo sapiens) (UniProt P20794); test: Selectivity interaction (KinomeScan (DiscoverX)) EUB0001049a MAK; conditions: at 1 µM
T2 sequence (whole entry): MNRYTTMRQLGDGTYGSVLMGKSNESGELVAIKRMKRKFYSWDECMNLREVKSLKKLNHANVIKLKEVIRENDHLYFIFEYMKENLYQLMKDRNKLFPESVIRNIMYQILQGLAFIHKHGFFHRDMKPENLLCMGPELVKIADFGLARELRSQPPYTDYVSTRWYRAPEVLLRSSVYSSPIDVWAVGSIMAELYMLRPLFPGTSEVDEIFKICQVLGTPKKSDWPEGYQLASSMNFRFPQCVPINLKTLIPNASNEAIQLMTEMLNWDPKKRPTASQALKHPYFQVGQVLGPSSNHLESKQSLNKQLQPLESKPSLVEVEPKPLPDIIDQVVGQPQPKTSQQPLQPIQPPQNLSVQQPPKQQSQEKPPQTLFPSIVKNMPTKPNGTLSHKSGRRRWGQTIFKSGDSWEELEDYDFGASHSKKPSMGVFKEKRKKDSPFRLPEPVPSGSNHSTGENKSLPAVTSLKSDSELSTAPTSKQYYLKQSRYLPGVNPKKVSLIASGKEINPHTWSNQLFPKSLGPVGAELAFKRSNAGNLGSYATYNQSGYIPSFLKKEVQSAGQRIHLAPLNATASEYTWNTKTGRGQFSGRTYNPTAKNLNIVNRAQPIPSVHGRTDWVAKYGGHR

[7] = target: T3, Serine/threonine-protein kinase 36 (Homo sapiens) (UniProt Q9NRP7); test: Selectivity interaction (KinomeScan (DiscoverX)) EUB0000695a STK36; conditions: at 100 nM
T3 sequence (whole entry): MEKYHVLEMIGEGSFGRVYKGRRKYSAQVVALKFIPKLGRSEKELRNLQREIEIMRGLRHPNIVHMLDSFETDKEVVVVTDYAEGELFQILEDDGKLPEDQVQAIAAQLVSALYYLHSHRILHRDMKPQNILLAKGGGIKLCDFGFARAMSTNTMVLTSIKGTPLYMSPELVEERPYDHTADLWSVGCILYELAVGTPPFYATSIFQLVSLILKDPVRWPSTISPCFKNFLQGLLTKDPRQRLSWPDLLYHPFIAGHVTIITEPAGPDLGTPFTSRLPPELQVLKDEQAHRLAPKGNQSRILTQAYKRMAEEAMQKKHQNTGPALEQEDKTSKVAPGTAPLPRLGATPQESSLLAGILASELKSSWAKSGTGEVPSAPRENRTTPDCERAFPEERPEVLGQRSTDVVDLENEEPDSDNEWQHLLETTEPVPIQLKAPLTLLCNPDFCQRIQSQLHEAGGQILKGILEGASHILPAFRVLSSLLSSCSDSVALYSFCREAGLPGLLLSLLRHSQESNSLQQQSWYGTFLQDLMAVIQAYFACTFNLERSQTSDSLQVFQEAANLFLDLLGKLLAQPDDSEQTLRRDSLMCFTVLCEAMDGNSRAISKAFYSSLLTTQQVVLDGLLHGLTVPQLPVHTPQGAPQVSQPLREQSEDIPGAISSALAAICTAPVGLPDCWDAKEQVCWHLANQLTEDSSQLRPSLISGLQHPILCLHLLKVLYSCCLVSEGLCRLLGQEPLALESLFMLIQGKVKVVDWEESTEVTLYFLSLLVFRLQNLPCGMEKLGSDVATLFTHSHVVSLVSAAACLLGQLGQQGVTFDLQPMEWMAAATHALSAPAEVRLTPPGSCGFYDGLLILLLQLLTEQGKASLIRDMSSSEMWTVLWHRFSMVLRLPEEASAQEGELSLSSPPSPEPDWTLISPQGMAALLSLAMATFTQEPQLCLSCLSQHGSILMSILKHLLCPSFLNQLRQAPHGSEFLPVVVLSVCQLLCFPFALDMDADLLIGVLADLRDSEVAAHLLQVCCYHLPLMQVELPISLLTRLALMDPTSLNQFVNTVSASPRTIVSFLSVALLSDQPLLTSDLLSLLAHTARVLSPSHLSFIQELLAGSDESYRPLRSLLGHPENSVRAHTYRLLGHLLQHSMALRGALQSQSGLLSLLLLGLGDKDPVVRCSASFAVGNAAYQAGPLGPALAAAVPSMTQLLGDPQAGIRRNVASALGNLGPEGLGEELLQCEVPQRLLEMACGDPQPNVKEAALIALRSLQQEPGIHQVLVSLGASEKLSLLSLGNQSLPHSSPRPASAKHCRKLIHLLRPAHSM

[8] = target: High affinity nerve growth factor receptor (Homo sapiens, UniProt P04629); test: Selectivity interaction (KinomeScan (DiscoverX)) EUB0000595a NTRK1; conditions: at 10 µM
[9] = tested on: Hepatocyte growth factor receptor (Homo sapiens), P08581 [Y1235D]; test: (§1) Selectivity interaction (KinomeScan (DiscoverX)) EUB0001619a MET; conditions: at 1 µM
[10] = target: Hepatocyte growth factor receptor (Homo sapiens, UniProt P08581); test: as §1; conditions: at 1 µM
[11] = tested on: Hepatocyte growth factor receptor (Homo sapiens), P08581 [M1250T]; test: as §1; conditions: at 1 µM
Sequence of Hepatocyte growth factor receptor (Homo sapiens), P08581 [M1250T] (P08581 whole entry M1250T): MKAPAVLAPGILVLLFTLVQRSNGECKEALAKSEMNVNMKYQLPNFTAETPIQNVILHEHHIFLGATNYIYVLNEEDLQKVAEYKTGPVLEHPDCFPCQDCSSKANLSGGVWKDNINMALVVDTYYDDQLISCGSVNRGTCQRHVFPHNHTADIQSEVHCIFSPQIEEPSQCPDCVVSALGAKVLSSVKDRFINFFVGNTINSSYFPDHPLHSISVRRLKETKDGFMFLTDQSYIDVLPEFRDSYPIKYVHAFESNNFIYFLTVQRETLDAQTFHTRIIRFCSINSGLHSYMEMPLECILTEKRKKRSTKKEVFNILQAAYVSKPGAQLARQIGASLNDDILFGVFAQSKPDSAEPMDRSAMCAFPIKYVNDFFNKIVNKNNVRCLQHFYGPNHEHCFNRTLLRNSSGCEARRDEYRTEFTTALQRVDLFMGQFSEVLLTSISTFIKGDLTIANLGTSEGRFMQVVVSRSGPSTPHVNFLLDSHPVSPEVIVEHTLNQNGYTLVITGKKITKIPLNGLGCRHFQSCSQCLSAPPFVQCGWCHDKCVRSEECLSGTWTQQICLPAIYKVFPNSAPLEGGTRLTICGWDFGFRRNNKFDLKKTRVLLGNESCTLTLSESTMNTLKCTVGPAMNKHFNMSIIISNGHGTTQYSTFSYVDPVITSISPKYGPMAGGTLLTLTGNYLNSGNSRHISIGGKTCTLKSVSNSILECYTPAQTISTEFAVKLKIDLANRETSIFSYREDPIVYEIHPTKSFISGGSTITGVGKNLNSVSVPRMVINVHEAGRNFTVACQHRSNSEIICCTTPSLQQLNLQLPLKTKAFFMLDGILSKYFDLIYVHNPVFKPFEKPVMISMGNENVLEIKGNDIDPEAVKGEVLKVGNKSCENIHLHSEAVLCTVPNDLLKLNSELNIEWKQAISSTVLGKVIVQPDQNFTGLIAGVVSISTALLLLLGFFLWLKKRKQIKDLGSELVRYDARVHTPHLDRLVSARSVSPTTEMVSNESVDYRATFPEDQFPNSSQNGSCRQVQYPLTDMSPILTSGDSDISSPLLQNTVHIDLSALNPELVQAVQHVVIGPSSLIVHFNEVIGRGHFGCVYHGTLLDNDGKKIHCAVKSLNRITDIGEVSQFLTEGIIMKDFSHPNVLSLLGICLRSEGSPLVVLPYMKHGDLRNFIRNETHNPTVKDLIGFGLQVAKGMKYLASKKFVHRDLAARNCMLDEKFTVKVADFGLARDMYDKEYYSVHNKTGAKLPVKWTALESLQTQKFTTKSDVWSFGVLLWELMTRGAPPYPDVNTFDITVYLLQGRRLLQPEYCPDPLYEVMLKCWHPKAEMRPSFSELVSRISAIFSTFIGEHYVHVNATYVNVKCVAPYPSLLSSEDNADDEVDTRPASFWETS

[12] = target: Serine/threonine-protein kinase SIK3 (Homo sapiens) (UniProt Q9Y2K2); test: Selectivity interaction (KinomeScan (DiscoverX)) EUB0001619a SIK3; conditions: at 1 µM
Sequence of Serine/threonine-protein kinase SIK3 (Homo sapiens) (Q9Y2K2 whole entry, looked up): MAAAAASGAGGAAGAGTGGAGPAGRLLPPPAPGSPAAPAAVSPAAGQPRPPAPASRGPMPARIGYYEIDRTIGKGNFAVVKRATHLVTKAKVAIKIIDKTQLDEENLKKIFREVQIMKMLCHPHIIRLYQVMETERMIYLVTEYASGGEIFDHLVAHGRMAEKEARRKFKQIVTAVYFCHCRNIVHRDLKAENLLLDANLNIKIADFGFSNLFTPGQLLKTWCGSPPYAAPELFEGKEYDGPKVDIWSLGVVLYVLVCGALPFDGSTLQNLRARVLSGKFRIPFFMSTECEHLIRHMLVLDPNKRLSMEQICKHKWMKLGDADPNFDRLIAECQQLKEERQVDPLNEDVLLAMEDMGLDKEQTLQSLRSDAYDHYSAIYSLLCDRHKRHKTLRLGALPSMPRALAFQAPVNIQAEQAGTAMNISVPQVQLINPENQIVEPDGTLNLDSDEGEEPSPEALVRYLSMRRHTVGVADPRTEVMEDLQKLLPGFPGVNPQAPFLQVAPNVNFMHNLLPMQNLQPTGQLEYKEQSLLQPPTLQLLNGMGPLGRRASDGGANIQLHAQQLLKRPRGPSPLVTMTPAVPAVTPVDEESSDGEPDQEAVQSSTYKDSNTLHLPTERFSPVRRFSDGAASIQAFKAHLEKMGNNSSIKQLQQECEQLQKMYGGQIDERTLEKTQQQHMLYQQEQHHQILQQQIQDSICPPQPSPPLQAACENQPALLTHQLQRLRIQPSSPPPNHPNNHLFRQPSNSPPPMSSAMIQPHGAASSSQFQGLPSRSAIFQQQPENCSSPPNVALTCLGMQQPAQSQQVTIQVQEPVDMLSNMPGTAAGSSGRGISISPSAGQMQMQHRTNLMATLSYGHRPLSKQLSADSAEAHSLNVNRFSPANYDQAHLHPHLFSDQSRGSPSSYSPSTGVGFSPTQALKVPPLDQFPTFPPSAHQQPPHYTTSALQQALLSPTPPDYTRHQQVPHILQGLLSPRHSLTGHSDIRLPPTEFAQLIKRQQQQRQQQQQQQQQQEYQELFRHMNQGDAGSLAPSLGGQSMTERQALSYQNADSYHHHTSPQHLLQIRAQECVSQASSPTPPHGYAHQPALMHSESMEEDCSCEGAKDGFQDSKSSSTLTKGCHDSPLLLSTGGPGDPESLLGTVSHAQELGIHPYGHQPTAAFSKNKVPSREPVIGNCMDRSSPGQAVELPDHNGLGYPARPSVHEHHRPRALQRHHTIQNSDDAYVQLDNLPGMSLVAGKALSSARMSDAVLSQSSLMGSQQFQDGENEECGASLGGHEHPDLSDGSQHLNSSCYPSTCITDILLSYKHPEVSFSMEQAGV

Sequence of Histone-lysine N-methyltransferase KMT5C (Homo sapiens) (Q86Y97 whole entry, looked up): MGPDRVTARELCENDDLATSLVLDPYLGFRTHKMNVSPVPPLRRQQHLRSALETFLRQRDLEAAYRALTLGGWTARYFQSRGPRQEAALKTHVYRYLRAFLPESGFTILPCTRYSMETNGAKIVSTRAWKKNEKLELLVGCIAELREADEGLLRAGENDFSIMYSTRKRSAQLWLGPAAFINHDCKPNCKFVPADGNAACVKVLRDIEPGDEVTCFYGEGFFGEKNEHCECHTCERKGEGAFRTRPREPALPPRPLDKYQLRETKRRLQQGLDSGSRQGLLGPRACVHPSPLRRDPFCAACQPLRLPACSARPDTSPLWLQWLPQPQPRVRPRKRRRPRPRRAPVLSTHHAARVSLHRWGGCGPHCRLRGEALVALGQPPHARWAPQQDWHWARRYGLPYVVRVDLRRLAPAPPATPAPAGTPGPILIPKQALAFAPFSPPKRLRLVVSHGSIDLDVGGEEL
Sequence of BMP-2-inducible protein kinase (Homo sapiens) (Q9NSY1 whole entry, looked up): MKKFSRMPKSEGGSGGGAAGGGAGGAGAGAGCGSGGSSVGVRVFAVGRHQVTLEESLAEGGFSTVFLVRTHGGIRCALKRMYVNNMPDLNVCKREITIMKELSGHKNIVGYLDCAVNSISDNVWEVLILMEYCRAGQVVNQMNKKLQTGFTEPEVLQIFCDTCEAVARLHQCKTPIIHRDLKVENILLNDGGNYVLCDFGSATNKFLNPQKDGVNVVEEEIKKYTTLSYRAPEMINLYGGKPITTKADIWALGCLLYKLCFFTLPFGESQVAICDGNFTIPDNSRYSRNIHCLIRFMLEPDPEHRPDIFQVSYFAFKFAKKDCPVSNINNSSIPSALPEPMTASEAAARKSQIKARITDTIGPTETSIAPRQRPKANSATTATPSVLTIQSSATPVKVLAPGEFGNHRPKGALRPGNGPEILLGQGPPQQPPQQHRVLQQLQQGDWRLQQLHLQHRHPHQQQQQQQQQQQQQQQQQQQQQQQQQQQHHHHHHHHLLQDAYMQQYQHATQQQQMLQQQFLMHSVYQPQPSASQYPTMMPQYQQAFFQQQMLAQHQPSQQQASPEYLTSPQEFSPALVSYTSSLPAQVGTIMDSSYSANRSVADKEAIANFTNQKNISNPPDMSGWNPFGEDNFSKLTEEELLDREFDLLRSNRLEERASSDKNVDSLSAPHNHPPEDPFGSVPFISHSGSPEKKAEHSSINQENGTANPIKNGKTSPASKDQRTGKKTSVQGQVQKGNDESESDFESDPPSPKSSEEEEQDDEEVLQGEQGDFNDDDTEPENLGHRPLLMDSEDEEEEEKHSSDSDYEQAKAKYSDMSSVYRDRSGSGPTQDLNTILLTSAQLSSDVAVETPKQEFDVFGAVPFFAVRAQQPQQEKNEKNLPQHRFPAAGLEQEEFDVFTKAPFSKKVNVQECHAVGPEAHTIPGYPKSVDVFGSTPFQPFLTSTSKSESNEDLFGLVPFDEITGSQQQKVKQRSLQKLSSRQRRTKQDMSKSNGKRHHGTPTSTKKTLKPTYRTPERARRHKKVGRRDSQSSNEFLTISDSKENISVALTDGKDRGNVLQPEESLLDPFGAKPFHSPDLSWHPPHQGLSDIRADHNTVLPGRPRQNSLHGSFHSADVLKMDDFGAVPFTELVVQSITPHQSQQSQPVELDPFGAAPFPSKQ

SMILES: Cc1cc(C)cc([C@H]2c3cc(C)ccc3NC(=O)CN2C(=O)c2ccc(Br)s2)c1
- % of activity ([1]; at 1 µM): 101%
- % of activity ([1]; at 10 µM): 102%

SMILES: COc1cc(N(C)c2ccnc3ccc(C(F)(F)F)cc23)cc(OC)c1OC
- % binding [2]: 99%

SMILES: Cn1cc(-n2cnc3c(NCc4nc5cc(Cl)c(Cl)cc5[nH]4)nc(N4CCOCC4)nc32)cn1
- % of inhibition [3]: -35.1%

SMILES: CNC(=O)Nc1ccc(-c2nc(N3CC4CCC(C3)O4)c3cnn(C4CCC5(CC4)OCCO5)c3n2)cc1
- % of inhibition [4]: 4%
- % of inhibition [5]: 2%

SMILES: COc1cc(Nc2nc(C)cc(-c3cnn4nc(OC)ccc34)n2)cc(C(F)(F)F)c1
- % of control [6]: 84%

SMILES: Cc1cc(F)c(C(=O)Nc2cccc(-c3nncn3C(C)C)n2)cc1-n1cnc(C2CC2)c1
- % of control [7]: 100%

SMILES: COCC(=O)NC/C=C/c1ccc2ncnc(Nc3ccc(Oc4ccc(C)nc4)c(C)c3)c2c1 [CP-724714]
- % of control [8]: 89%

SMILES: N#Cc1cccc(-c2c[nH]c3ncnc(N4CCOCC4)c23)c1
- % of control [9]: 93%
- % of control [10]: 93%
- % of control [11]: 96%
- % of control [12]: 100%

Reference: ChEMBL document CHEMBL5465560, “Selectivity Literature for EUbOPEN Chemogenomic Library” (2024)
